Laboratory results taken from patent US20240383867A1, “CRYSTALLINE FORMS OF ISOXAZOLINE COMPOUND” (ELANCO US, INC., priority 2021, published 2024).

Assays:
[1] = hygroscopicity testing via dynamic vapor sorption (DVS); format: physicochemical; settings: for hygroscopicity classification: DVS, class based on mass gain at 85% RH; for absorption of water (DVS): storage at 95% relative humidity for five hours
Protocol: Sorption isotherms were obtained using an SPS11-100n Sorptions Prufsystem from ProUmid (formerly Projekt Messtechnik). About 5 mg to about 20 mg of sample were placed into an aluminum sample plan on top of a microbalance and allowed to equilibrate at 50% relative humidity (RH) before starting the following applied measurement program. Humidity change rates of 5% per hour were used. The applied measurement program can be described as follows: • (1) 2 h at 50% RH • (2) 50→0% RH (5%/h); 5 h at 0% RH • (3) 0→95% RH (5%/h); 5 h at 95% RH • (4) 95→0% RH (5%/h); 5 h at 0% RH • (5) 0→95% RH (5%/h); 5 h at 95% RH • (6) 95→50% RH (5%/h); 2 h at 50% RH. The sample was recovered after completion of the isotherm and re-analyzed by XRPD. Hygroscopicity was classified based on the mass gain at 85% relative humidity (RH) relative to the initial mass as follows: deliquescent (sufficient water adsorbed to form a liquid), very hygroscopic (mass increase […]), hygroscopic (mass increase <15% but ≥2%), slightly hygroscopic (mass increase <2% but ≥0.2%), or non-hygroscopic (mass increase <0.2%).

[2] = format: physicochemical
Protocol: 53 mg of Sample 42 (Form A) and 47 mg of Sample (Form C) were suspended in 1 mL of an ethyl acetate/heptane (1:3) mixture at room temperature. After two hours of stirring at room temperature, one additional mL of the solvent mixture was added to the suspension. After another 1 hour of stirring, the suspension was seeded with Sample 42 and Sample 55 (about 10-20 mg). Further stirring was conducted at room temperature for one week. Then the suspension was filtered using a centrifugal unit filter (PTFE, 0.2 μm, 5000 rpm, room temperature).
The remaining substance from Sample 56 (approx. 42 mg) was further equilibrated in 0.5 mL of an ethyl acetate/heptane (1:3) mixture at room temperature After one month of stirring, the suspension was filtered using a centrifugal unit filter (PTFE, 0.2 μm, 5000 rpm, room temperature). […] The resulting Crystalline Form C of Example 27a is herein referred to as Sample 56A.
71 mg of Sample 42 (Form A) and 73 mg of Sample 55 (Form C) were suspended in 1 mL of an ethyl acetate/heptane (1:3) mixture at 60° C. After two hours of stirring at 60° C., one additional mL of the solvent mixture was added to the suspension. After another 1 hour of stirring, the suspension was seeded with Samples 42 and 55 (about 10-20 mg). Further stirring was conducted at 60° C. After four days of stirring, a solution with material on the glass side was obtained. Approx. […]

[3] = solubility in common organic solvents; format: physicochemical
[4] = system: fleas (Ctenocephalides felis); settings: in vitro ingesting activity; cited from earlier work
[5] = in vivo; cited from earlier work

| SMILES | hygroscopicity classification [1] | absorption of water (DVS) [1] | relative stability of Form A versus Form C [2] | also measured |
| --- | --- | --- | --- | --- |
| Cc1cc(C2=NO[C@@](c3cc(C(F)(F)F)cc(Cl)c3F)(C(F)(F)F)C2)ccc1C(=O)NCC(=O)NCC(F)(F)F [Crystalline Form A, 2-methyl-N-[2-oxo-2-(2,2,2-trifluoroethylamino)ethyl]-4-[(5S)-5-[3-chloro-2-fluoro-5-(trifluoromethyl)phenyl]-5-(trifluoromethyl)-4H-isoxazol-3-yl]benzamide] | slightly hygroscopic (slightly hygroscopic (mass increase <2% but ≥0.2%)) | ~0.5% | stable form at room temperature | – |
| Cc1cc(C2=NO[C@@](c3cc(C(F)(F)F)cc(Cl)c3F)(C(F)(F)F)C2)ccc1C(=O)NCC(=O)NCC(F)(F)F [Crystalline Form B, 2-methyl-N-[2-oxo-2-(2,2,2-trifluoroethylamino)ethyl]-4-[(5S)-5-[3-chloro-2-fluoro-5-(trifluoromethyl)phenyl]-5-(trifluoromethyl)-4H-isoxazol-3-yl]benzamide] | – | up to 1.2% | – | – |
| Cc1cc(C2=NO[C@@](c3cc(C(F)(F)F)cc(Cl)c3F)(C(F)(F)F)C2)ccc1C(=O)NCC(=O)NCC(F)(F)F [Form C, 2-methyl-N-[2-oxo-2-(2,2,2-trifluoroethylamino)ethyl]-4-[(5S)-5-[3-chloro-2-fluoro-5-(trifluoromethyl)phenyl]-5-(trifluoromethyl)-4H-isoxazol-3-yl]benzamide] | – | – | stable form at 30° and above | – |
| Cc1cc(C2=NO[C@@](c3cc(C(F)(F)F)cc(Cl)c3F)(C(F)(F)F)C2)ccc1C(=O)NCC(=O)NCC(F)(F)F [amorphous form of the compound of Formula 1] [2-methyl-N-[2-oxo-2-(2,2,2-trifluoroethylamino)ethyl]-4-[(5S)-5-[3-chloro-2-fluoro-5-(trifluoromethyl)phenyl]-5-(trifluoromethyl)-4H-isoxazol-3-yl]benzamide] | slightly hygroscopic (slightly hygroscopic (mass increase <2% but ≥0.2%)) | ~1.5% | – | solid form after DVS measurement (XRPD) ([1]; XRPD after DVS): No crystallization occurred; solubility in common organic solvents [3]: high solubility |
| Cc1cc(C2=NO[C@@](c3cc(C(F)(F)F)cc(Cl)c3F)(C(F)(F)F)C2)ccc1C(=O)NCC(=O)NCC(F)(F)F [compound of Formula 1, 2-methyl-N-[2-oxo-2-(2,2,2-trifluoroethylamino)ethyl]-4-[(5S)-5-[3-chloro-2-fluoro-5-(trifluoromethyl)phenyl]-5-(trifluoromethyl)-4H-isoxazol-3-yl]benzamide] | – | – | – | EC50 [4]: < 1 ppm; half-life [5]: 50 days |
